Legend:
[1] = Half life in cynomolgus monkey at 0.5 mg/kg, iv; format: ADME, organism-based, Macaca fascicularis; parameters: dose 0.5 mg/kg, route intravenous; details: in vivo
[2] = Half life in fasted healthy human at 10 mg/kg, po; format: ADME, organism-based; parameters: dose 10 mg/kg, route oral; details: in vivo
[3] = Cmax in fasted healthy human at 3 mg/kg, po; format: ADME, organism-based; parameters: dose 3 mg/kg, route oral; details: in vivo
[4] = Volume of distribution at steady state in cynomolgus monkey at 0.5 mg/kg, iv; format: ADME, organism-based, Macaca fascicularis; parameters: dose 0.5 mg/kg, route intravenous; details: in vivo, read-out: Vdss
[5] = system: Hepatitis C virus; assay: Antiviral activity against HCV genotype 1a H77 infected in human HuH7 cells assessed as inhibition of viral RNA replication after 3 days by renilla luciferase reporter gene assay in presence of 10% BSA; format: functional, organism-based, Hepacivirus hominis; details: genotype 1a H77, Huh-7, 72 h
[6] = Ratio of EC50 for HCV genotype 1a H77 infected in human HuH7 cells in presence of human serum to plasma concentration in fasted healthy human at 3 mg/kg, po at 24 hrs; parameters: species or system Huh-7
[7] = AUClast in fasted healthy human at 10 mg/kg, po; format: ADME, organism-based; parameters: time 0 - last, dose 10 mg/kg, route oral; details: plasma
[8] = Ratio of EC50 for HCV genotype 1a H77 infected in human HuH7 cells in presence of human serum to plasma concentration in fasted healthy human at 100 mg, po at 24 hrs
[9] = AUClast in fasted healthy human at 100 mg/kg, po; format: ADME, organism-based; parameters: time 0 - last, dose 100 mg/kg, route oral; details: plasma
[10] = Oral bioavailability in Sprague-Dawley rat at 2 mg/kg; format: ADME, organism-based; details: in vivo
[11] = system: Hepatitis C virus; assay: Antiviral activity against HCV genotype 1b Con1 infected in human HuH7 cells assessed as inhibition of viral RNA replication after 3 days by renilla luciferase reporter gene assay in presence of human serum; format: functional, organism-based, Hepacivirus hominis; details: isolate Con1, Huh-7, 72 h
[12] = AUC (infinity) in fasted healthy human at 3 mg/kg, po; format: ADME, organism-based; parameters: time infinity, dose 3 mg/kg, route oral; details: plasma
[13] = Clearance in Sprague-Dawley rat at 1 mg/kg, iv; format: ADME, organism-based; parameters: dose 1 mg/kg, route intravenous; details: in vivo
[14] = Volume of distribution at steady state in Sprague-Dawley rat at 1 mg/kg, iv; format: ADME, organism-based; parameters: dose 1 mg/kg, route intravenous; details: in vivo, read-out: Vdss
[15] = Metabolic stability in beagle dog liver microsomes assessed as hepatic extraction at 3 uM after 60 mins by LC/MS/MS analysis; format: ADME, Canis lupus familiaris; details: read-out: ERH
[16] = Plasma concentration in fasted healthy human at 30 mg/kg, po at 24 hrs; format: ADME, organism-based; parameters: dose 30 mg/kg, route oral
[17] = Half life in fasted healthy human at 60 mg/kg, po; format: ADME, organism-based; parameters: dose 60 mg/kg, route oral; details: in vivo
[18] = Mean residence time in beagle dog at 0.2 mg/kg, iv; format: ADME, organism-based, Canis lupus familiaris; parameters: dose 0.2 mg/kg, route intravenous; details: in vivo
[19] = Tmax in fasted healthy human at 10 mg/kg, po; format: ADME, organism-based; parameters: dose 10 mg/kg, route oral; details: in vivo
[20] = Metabolic stability in Sprague-Dawley rat liver microsomes assessed as hepatic extraction at 3 uM after 60 mins by LC/MS/MS analysis; format: ADME; details: read-out: ERH
[21] = Half life in beagle dog at 0.2 mg/kg, iv; format: ADME, organism-based, Canis lupus familiaris; parameters: dose 0.2 mg/kg, route intravenous; details: in vivo
[22] = AUClast in fasted healthy human at 60 mg/kg, po; format: ADME, organism-based; parameters: dose 60 mg/kg, route oral, time 0 - last; details: plasma
[23] = Cmax in fasted healthy human at 30 mg/kg, po; format: ADME, organism-based; parameters: dose 30 mg/kg, route oral; details: in vivo
[24] = Tmax in fasted healthy human at 60 mg/kg, po; format: ADME, organism-based; parameters: dose 60 mg/kg, route oral; details: in vivo
[25] = Cmax in fasted healthy human at 60 mg/kg, po; format: ADME, organism-based; parameters: dose 60 mg/kg, route oral; details: in vivo
[26] = Half life in fasted healthy human at 3 mg/kg, po; format: ADME, organism-based; parameters: dose 3 mg/kg, route oral; details: in vivo
[27] = Cmax in fasted healthy human at 100 mg/kg, po; format: ADME, organism-based; parameters: dose 100 mg/kg, route oral; details: in vivo
[28] = Tmax in fasted healthy human at 3 mg/kg, po; format: ADME, organism-based; parameters: dose 3 mg/kg, route oral; details: in vivo
[29] = AUClast in fasted healthy human at 3 mg/kg, po; format: ADME, organism-based; parameters: time 0 - last, dose 3 mg/kg, route oral; details: plasma
[30] = AUC (infinity) in fasted healthy human at 30 mg/kg, po; format: ADME, organism-based; parameters: time infinity, dose 30 mg/kg, route oral; details: plasma
[31] = Ratio of EC50 for HCV genotype 1a H77 infected in human HuH7 cells in presence of 10% BSA to plasma concentration in fasted healthy human at 3 mg/kg, po at 24 hrs; parameters: species or system Huh-7
[32] = Plasma concentration in fasted healthy human at 60 mg/kg, po at 24 hrs; format: ADME, organism-based; parameters: dose 60 mg/kg, route oral

COC(=O)N[C@H](C(=O)N1CC2(CC2)C[C@H]1c1nc(-c2ccc3c(c2)C(F)(F)c2cc(-c4ccc5[nH]c([C@@H]6[C@H]7CC[C@H](C7)N6C(=O)[C@@H](NC(=O)OC)C(C)C)nc5c4)ccc2-3)c[nH]1)C(C)C
half-life [1]: 10.3 h
half-life [2]: 42.4 h
Cmax [3]: 6.75 nM
Vd [4]: 2.15 L/kg
EC50 [5]: 0.21 nM
Ratio [6]: 12
AUC(0-t) [7]: 0.558 µM·h
Ratio [8]: 470
AUC(0-t) [9]: 7.05 µM·h
bioavailability [10]: 32.5%
EC50 [11]: 0.027 nM
AUC(0-inf) [12]: 0.245 µM·h
clearance [13]: 7.17 mL/min/kg
Vd [14]: 2.66 L/kg
hepatic extraction ratio at 1 h, 3 µM [15]: < 0.095
concentration at 24 h [16]: 31.4 nM
half-life [17]: 44.2 h
MRT [18]: 9.2 h
Tmax [19]: 5 h
hepatic extraction ratio at 1 h, 3 µM [20]: < 0.092
half-life [21]: 7.41 h
AUC(0-t) [22]: 4.01 µM·h
Cmax [23]: 82.2 nM
Tmax [24]: 5.5 h
Cmax [25]: 133 nM
half-life [26]: 45.2 h
Cmax [27]: 242 nM
Tmax [28]: 5.25 h
AUC(0-t) [29]: 0.14 µM·h
AUC(0-inf) [30]: 2.72 µM·h
Ratio [31]: 12
concentration at 24 h [32]: 56.4 nM
